Experimental data from US20240158412A1 (Faxian Therapeutics, LLC, priority 2021, published 2024).

Target: USP7 (Homo sapiens, UniProt Q93009)
Test: biochemical
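Note: fluorescence intensity readout of USP7 enzymatic activity, reaction incubated 90 min at room temperature.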

Chain of USP7 (Q93009 whole entry): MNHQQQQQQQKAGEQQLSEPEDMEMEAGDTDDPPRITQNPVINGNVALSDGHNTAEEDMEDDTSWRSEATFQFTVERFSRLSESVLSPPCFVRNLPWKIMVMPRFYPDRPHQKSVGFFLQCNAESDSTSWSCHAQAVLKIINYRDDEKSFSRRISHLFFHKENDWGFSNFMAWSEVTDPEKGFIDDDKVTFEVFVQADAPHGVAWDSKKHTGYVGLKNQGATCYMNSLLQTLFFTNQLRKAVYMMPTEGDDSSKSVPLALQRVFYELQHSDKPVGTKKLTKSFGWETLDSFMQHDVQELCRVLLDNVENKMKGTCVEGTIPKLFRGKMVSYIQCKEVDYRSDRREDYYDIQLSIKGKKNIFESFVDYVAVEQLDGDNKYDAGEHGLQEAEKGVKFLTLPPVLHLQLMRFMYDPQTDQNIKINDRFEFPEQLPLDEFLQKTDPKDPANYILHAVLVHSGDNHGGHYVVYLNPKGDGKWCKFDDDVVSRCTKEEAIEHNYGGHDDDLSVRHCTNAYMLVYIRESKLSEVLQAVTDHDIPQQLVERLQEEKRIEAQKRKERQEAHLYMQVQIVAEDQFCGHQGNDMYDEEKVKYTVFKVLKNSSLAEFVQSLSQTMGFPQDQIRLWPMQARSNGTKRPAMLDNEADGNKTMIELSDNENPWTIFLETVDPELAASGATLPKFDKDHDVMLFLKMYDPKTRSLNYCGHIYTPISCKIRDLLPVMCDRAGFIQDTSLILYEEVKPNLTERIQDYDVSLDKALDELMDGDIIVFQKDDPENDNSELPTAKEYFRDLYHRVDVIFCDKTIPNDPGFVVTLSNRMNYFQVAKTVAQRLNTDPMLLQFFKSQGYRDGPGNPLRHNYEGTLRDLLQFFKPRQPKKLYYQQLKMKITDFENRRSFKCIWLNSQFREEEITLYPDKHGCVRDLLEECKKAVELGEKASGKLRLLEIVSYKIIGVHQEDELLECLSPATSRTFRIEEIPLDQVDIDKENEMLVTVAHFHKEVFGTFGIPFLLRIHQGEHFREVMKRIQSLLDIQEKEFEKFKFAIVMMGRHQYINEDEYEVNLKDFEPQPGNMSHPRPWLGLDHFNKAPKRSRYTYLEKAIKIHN

IC50, < 10 nM:
C[C@]1(CO)C[C@H](N2CCCc3cc(C#N)cc(-c4ccnc5cc(CN6C(=O)CCC6=O)sc45)c32)CN1 [Example 209, 8-(2-((2,5-dioxopyrrolidin-1-yl)methyl)thieno[3,2-b]pyridin-7-yl)-1-((3S,5R)-5-(hydroxymethyl)-5-methylpyrrolidin-3-yl)-1,2,3,4-tetrahydroquinoline-6-carbonitrile]
C[C@]1(CO)C[C@H](N2CCCc3cc(Cl)cc(-c4ccnc5c(F)c(CN6C(=O)CCC6=O)sc45)c32)CN1 [Example 210, 1-[[7-[6-chloro-1-[(3S,5R)-5-(hydroxymethyl)-5-methyl-pyrrolidin-3-yl]-3,4-dihydro-2H-quinolin-8-yl]-3-fluoro-thieno[3,2-b]pyridin-2-yl]methyl]pyrrolidine-2,5-dione]
O=C1CCC(=O)N1Cc1cc2nccc(-c3cc(Cl)cc4c3N(C3CNC5(CC(F)C5)C3)CCC4)c2s1 (stereo not drawn) [Example 211, 1-((7-(6-chloro-1-(2-fluoro-5-azaspiro[3.4]octan-7-yl)-1,2,3,4-tetrahydroquinolin-8-yl)thieno[3,2-b]pyridin-2-yl)methyl)pyrrolidine-2,5-dione]
O=C1C2CC2C(=O)N1Cc1cc2nccc(-c3cc(Cl)cc4c3N([C@@H]3CN[C@@H](CO)C3)CCO4)c2s1 (stereo partly drawn) [Example 214, 3-((7-(7-chloro-4-((3S,5R)-5-(hydroxymethyl)pyrrolidin-3-yl)-3,4-dihydro-2H-benzo[b][1,4]oxazin-5-yl)thieno[3,2-b]pyridin-2-yl)methyl)-3-azabicyclo[3.1.0]hexane-2,4-dione]
N#Cc1cc2c(c(-c3ccnc4cc(CN5C(=O)C6CC6C5=O)sc34)c1)N([C@@H]1CN[C@@H](CO)C1)CCO2 (stereo partly drawn) [Example 215, 5-(2-((2,4-dioxo-3-azabicyclo[3.1.0]hexan-3-yl)methyl)thieno[3,2-b]pyridin-7-yl)-4-((3S,5R)-5-(hydroxymethyl)pyrrolidin-3-yl)-3,4-dihydro-2H-benzo[b][1,4]oxazine-7-carbonitrile]
Cc1cnn(Cc2cc3nccc(-c4cc(Cl)cc5c4N([C@@H]4CN[C@@H](CO)C4)CCO5)c3s2)c(=O)c1 [Example 216, 2-((7-(7-chloro-4-((3S,5R)-5-(hydroxymethyl)pyrrolidin-3-yl)-3,4-dihydro-2H-benzo[b][1,4]oxazin-5-yl)thieno[3,2-b]pyridin-2-yl)methyl)-5-methylpyridazin-3(2H)-one]
CC(C)(C)c1cnn(Cc2cc3nccc(-c4cc(C#N)cc5c4N([C@@H]4CN[C@@H](CO)C4)CCO5)c3s2)c(=O)c1 [Example 217, 5-(2-((4-(tert-butyl)-6-oxopyridazin-1(6H)-yl)methyl)thieno[3,2-b]pyridin-7-yl)-4-((3S,5R)-5-(hydroxymethyl)pyrrolidin-3-yl)-3,4-dihydro-2H-benzo[b][1,4]oxazine-7-carbonitrile]
CC1(C)C2C(=O)N(Cc3cc4nccc(-c5cc(C#N)cc6c5N([C@@H]5CN[C@@](C)(CO)C5)CCO6)c4s3)C(=O)C21 (stereo partly drawn) [Example 220, 5-(2-((6,6-dimethyl-2,4-dioxo-3-azabicyclo[3.1.0]hexan-3-yl)methyl)thieno[3,2-b]pyridin-7-yl)-4-((3S,5R)-5-(hydroxymethyl)-5-methylpyrrolidin-3-yl)-3,4-dihydro-2H-benzo[b][1,4]oxazine-7-carbonitrile]
CC(C)(C)c1cnn(Cc2cc3nccc(-c4cc(C#N)cc5c4N([C@@H]4CN[C@@](C)(CO)C4)CCO5)c3s2)c(=O)c1 [Example 221, 5-[2-[(4-tert-butyl-6-oxo-pyridazin-1-yl)methyl]thieno[3,2-b]pyridin-7-yl]-4-[(3S,5R)-5-(hydroxymethyl)-5-methyl-pyrrolidin-3-yl]-2,3-dihydro-1,4-benzoxazine-7-carbonitrile]
